Data on 25 compounds can be found in publication PMC5722316, “Synthesis of novel purpurealidin analogs and evaluation of their effect on the cancer-relevant potassium channel KV10.1” (PLoS ONE, 2017).

Each structure is given as a SMILES string.

In data set [1] the target is T1, hKV10.1a (Homo sapiens, UniProt O95259).
T1 construct: expressed in transfected cells; host or cells: Xenopus laevis oocytes injected with cRNA transcribed from the hKV10.1a-pSGEM plasmid
T1 sequence (O95259 1-962 isoform O95259-2): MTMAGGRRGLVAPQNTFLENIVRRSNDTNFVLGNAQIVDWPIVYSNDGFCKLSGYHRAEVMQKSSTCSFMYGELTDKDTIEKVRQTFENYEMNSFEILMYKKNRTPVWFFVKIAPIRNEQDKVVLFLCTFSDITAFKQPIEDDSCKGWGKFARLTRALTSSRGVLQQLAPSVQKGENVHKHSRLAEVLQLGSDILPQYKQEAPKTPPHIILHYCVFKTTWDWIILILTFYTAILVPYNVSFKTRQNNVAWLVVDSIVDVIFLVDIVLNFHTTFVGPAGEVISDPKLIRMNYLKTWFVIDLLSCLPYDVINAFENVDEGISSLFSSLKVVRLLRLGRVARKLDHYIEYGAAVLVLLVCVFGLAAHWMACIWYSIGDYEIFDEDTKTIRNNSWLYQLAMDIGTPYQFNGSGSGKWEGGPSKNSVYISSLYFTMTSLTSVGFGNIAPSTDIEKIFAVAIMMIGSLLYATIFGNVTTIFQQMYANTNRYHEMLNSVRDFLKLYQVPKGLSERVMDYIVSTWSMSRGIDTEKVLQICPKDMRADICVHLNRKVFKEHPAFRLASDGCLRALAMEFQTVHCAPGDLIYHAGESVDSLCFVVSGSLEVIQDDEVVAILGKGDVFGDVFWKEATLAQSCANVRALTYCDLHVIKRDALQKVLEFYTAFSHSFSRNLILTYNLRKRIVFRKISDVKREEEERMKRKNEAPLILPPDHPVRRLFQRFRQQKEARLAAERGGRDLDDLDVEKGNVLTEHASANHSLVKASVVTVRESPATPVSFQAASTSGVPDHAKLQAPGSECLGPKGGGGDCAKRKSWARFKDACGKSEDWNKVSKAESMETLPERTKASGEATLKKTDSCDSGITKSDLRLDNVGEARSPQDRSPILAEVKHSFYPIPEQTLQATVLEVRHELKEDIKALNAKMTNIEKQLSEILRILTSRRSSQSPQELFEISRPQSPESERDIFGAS
Briefly: Two-electrode voltage-clamp recordings of KV10.1 currents in Xenopus laevis oocytes. The settings on record: for KV10.1 inhibitory activity in words (structure-activity discussion): based on inhibition at 40 μM (Fig 5). Format: cell-based. The text has this: For the expression of hKV10.1a (GeneBank accession number: NM_002238.3) in Xenopus oocytes, the hKV10.1a-pSGEM plasmid was linearized with SfiI (ThermoFisher Scientific, Waltham, Massachusetts, USA) and transcribed using the T7 mMESSAGE-mMACHINE transcription kit (Ambion®, Carlsbad, California, USA).
Stage V-VI Xenopus laevis (African clawed frog) oocytes were isolated by partial ovariectomy. Mature female animals were purchased from Nasco (Fort Atkinson, Wisconsin, USA) and were housed in the Aquatic Facility (KU Leuven) in compliance with the regulations of the European Union (EU) concerning the welfare of laboratory animals as declared in Directive 2010/63/EU. The use of Xenopus laevis was approved by the Animal Ethics Committee of the KU Leuven (Project nr. P038/2017). Prior to harvesting the oocytes, the animals were anesthetized by a 15-min submersion in 0.1% tricaine methanesulfonate (pH 7.0). Isolated oocytes were defolliculated with 1.5 mg/mL collagenase.
Defolliculated oocytes were injected with 4 nL of cRNA at a concentration of 1 ng/nL using a micro-injector (Drummond Scientific®, Broomall, Pennsylvania, USA). The oocytes were incubated in a solution containing (in mM): NaCl, 96; KCl, 2; CaCl2, 1.8; MgCl2, 2 and HEPES, 5 (pH 7.4), supplemented with 50 mg/L gentamycin sulfate.
Two-electrode voltage-clamp recordings were performed at room temperature (18–22°C) using a Geneclamp 500 amplifier (Molecular Devices, USA) controlled by a pClamp data acquisition system (Axon Instruments®, Union City, California, USA). Whole cell currents from oocytes were recorded 1–4 days after injection. Bath solution composition was (in mM): NaCl, 96; KCl, 2; CaCl2, 1.8; MgCl2, 2 and HEPES, 5 (pH 7.5). Voltage and current electrodes were filled with a 3 M solution of KCl in H2O. Resistances of both electrodes were kept between 0.5 and 1.5 MΩ. The elicited KV10.1 currents were filtered at 1 kHz and sampled at 2 kHz using a four-pole low-pass Bessel filter. Leak subtraction was performed using a -P/4 protocol. KV10.1 currents were evoked by 2-s depolarizing pulses to 0 mV from a holding potential of -90 mV unless otherwise indicated.
All electrophysiological data are presented as means ± S.E.M of n ≥ 3 independent experiments unless otherwise indicated. All data was analyzed using pClamp Clampfit 10.4 (Molecular Devices®, Downingtown, Pennsylvania, USA) and OriginPro 8 (Originlab®, Northampton, Massachusetts, USA) or GraphPad Prism 5 software (GraphPad Software, Inc., San Diego, California, USA).
(In general: In two-electrode clamp one electrode senses voltage and the other passes current.)

The mark [2] stands for this setting: 40 μM, extracellular perfusion, average ± SEM, read-out: KV10.1 current inhibition.

With `CN(C)CCCOc1c(Br)cc(CCNC(=O)c2ccccc2Br)cc1Br` [Compound 12], in data set [1] (setting [2]), the inhibition – broadly, the relative decrease from the control value, in per cent – at 40 µM was determined as 27 ± 4%.
On to `CN(C)CCCOc1c(Br)cc(CCNC(=O)c2ccc(Br)cc2)cc1Br` [Compound 14], for which, in data set [1] (setting [2]), the inhibition at 40 µM was determined as 22 ± 3%.
Still for that read-out and setting: to `CN(C)CCCOc1c(Br)cc(CCNC(=O)c2cncc(Br)c2)cc1Br` [Compound 15] belongs 50 ± 3%.
`CN(C)CCCc1c(Br)cc(CCNC(=O)c2cc(Cl)cc(Cl)c2)cc1Br` [Compound 16]: the melting point (usually the temperature of the solid-liquid transition) was 83 to 84.5 °C.
`CN(C)CCCOc1c(Br)cc(CCNC(=O)c2cc(F)cc(F)c2)cc1Br` [Compound 18]: the inhibition at 40 µM in data set [1] (setting [2]) was 35 ± 2%.
`CN(C)CCCOc1c(Br)cc(CCNC(=O)c2ccccc2F)cc1Br` [Compound 19] registered a melting point of 70 to 72 °C. The inhibition at 40 µM in data set [1] (setting [2]) was determined as 32 ± 4%.
With `COc1ccc(C(=O)NCCc2cc(Br)c(CCCN(C)C)c(Br)c2)cc1` [Compound 21], the melting point lay in the range of 106 to 109 °C.
On the same count and under the same terms, the figure for `COc1c(Cl)cc(C(=O)NCCc2cc(Br)c(CCCN(C)C)c(Br)c2)cc1Cl` [Compound 23] is 91 to 95 °C.
Still for that read-out and setting: the figure for `CCOc1c(Cl)cc(C(=O)NCCc2cc(Br)c(CCCN(C)C)c(Br)c2)cc1Cl` [Compound 24] is 73 to 75 °C.
Consider `COc1ccc(C(=O)NCCc2cc(Br)c(OCCCN(C)C)c(Br)c2)cc1Br` [Compound 25], for which the inhibition at 40 µM in data set [1] (setting [2]) was found to be 80 ± 4%.
`COc1c(Br)cc(C(=O)NCCc2cc(Br)c(CCCN(C)C)c(Br)c2)cc1Br` [Compound 26] came in with a melting point of 83 to 85 °C.
Regarding `COc1ccc(C(=O)NCCc2cc(Br)c(OCCCN(C)C)c(Br)c2)cc1F` [Compound 27], the melting point lay in the range of 83 to 89 °C. The inhibition at 40 µM in data set [1] (setting [2]) came out at 65 ± 1%.
In turn, `COc1c(F)cc(C(=O)NCCc2cc(Br)c(CCCN(C)C)c(Br)c2)cc1F` [Compound 28] yielded a melting point of 93 to 96 °C.
In the case of `COc1ccc(C(=O)NCCc2cc(Br)c(OCCCN(C)C)c(Br)c2)cc1I` [Compound 29], in data set [1] (setting [2]), the inhibition at 40 µM turned out to be 79 ± 2%.
Consider `COc1ccc(C(=O)NCCc2cc(Br)c(OCCCN(C)C)c(Br)c2)cc1C` [Compound 30], for which the inhibition at 40 µM in data set [1] (setting [2]) stood at 80 ± 2%.
For `COc1ccc(C(=O)NCCc2cc(Br)c(OCCCN(C)C)c(Br)c2)cc1OC` [Compound 31], in data set [1] (setting [2]), the inhibition at 40 µM was 44 ± 4%.
Take `CC(C)CCCOc1c(Br)cc(CCNC(=O)c2cc(Br)cc(Br)c2)cc1Br` [Compound 32]: the melting point lay within 123 to 124 °C. Besides, in data set [1] (setting [2]), the inhibition at 40 µM worked out at 0%. For the same compound, the “KV10.1 inhibitory activity in words (structure-activity discussion)” value in data set [1] is given as “total loss of the activity”.
The like results for `CC(C)CCCOc1c(Br)cc(CCNC(=O)c2cc(Cl)cc(Cl)c2)cc1Br` [Compound 33] were, in that order, 107.5 to 109 °C, 0% and “total loss of the activity”.
On to `O=C(NCCc1ccc(O)cc1)c1cc(Cl)cc(Cl)c1` [Compound 34], for which, in data set [1] (40 μM, extracellular perfusion, average ± SEM), the KV10.1 current inhibition was determined as 0 ± 0%.
On to `CN(C)CCCOc1ccc(CCNC(=O)c2cc(Cl)cc(Cl)c2)cc1` [Compound 35], for which, in data set [1] (setting [2]), the inhibition at 40 µM came to 4 ± 4%. Further, the “KV10.1 inhibitory activity in words (structure-activity discussion)” value in data set [1] is given as “abolished the activity”.
For the compound `CNCCCOc1c(Br)cc(CCNC(=O)c2ccc(OC)cc2)cc1Br` [Compound 43], the melting point fell in the range of 89 to 97 °C. Besides, in data set [1] (setting [2]), the inhibition at 40 µM amounted to 9 ± 5%.
For `CNCCCOc1c(Br)cc(CCNC(=O)c2ccc(OC)c(Cl)c2)cc1Br` [Compound 44], the inhibition at 40 µM in data set [1] (setting [2]) turned out to be 58 ± 1%.
The compound `CNCCCOc1c(Br)cc(CCNC(=O)c2cc(Cl)c(OC)c(Cl)c2)cc1Br` [Compound 45] gave a melting point of 86 to 97 °C. Also, the inhibition at 40 µM in data set [1] (setting [2]) is 39 ± 7%.
The compound `CNCCCOc1c(Br)cc(CCNC(=O)c2cc(F)c(OC)c(F)c2)cc1Br` [Compound 46] showed a melting point of 87 to 92 °C. The inhibition at 40 µM in data set [1] (setting [2]) is 14 ± 5%.
Consider `COCC(=O)O[C@]1(CCN(C)CCCc2nc3ccccc3[nH]2)CCc2cc(F)ccc2[C@@H]1C(C)C` [mibefradil, reference compound], for which, in data set [1] (10 μM, 2-s depolarizing pulses to 0 mV from -90 mV, read-out: KV10.1 current inhibition), the inhibition at 10 µM turned out to be 50 ± 5%.
